In the test the test system is BEL-7402 cells line. Nature of the test: CellTiter-Glo growth inhibition assay, BEL-7402 (internal control). To be noted: Homo sapiens, 72 h. In kind it is cell-based. On the procedure: When performing the assay, dose response test of Doxorubicin on BEL-7402 cells line (human primary hepatocellular carcinoma) will be used as internal control in each assay plate for the assay. The MEM medium supplemented with 5% H2O (5×) will be added into the cells as a negative controls. The final H2O concentration was 1% in each well.
Cells in log-phase are collected and counted. Cell suspensions are added to each well of 384-well plate at 800 cells per well (total volume 40 μl). The margin wells are filled with PBS buffer. Test compound at various concentrations are added in duplicates (add 10 μl 5× compound solutions to the plate). The assay plate is incubated for 72 h in 37° C./5% CO2 incubator. Cell viability was measured using the CellTiter-Glo® luminescent cell viability assay as described by the manufacturer (Promega, Ref G7571). After addition of 100 μL of CellTiter-Glo® reactifs solution, luminescence was measured using a PHERAstar Plus luminometer. Data were recorded by PHERAstar Plus, Data acquisition and analysis were performed using Microsoft Excel program and GraphPad Prism v.6 software.
Background: Cellular ATP, detected with luciferase, serves as a proxy for viable cell number.

By EC50 is commonly meant the concentration giving half of the maximal effect. A lower EC50 goes with greater potency.

The molecule `COc1cccc2c1C(=O)c1c(O)c3c(c(O)c1C2=O)C[C@@](O)(C(=O)CO)C[C@@H]3O[C@H]1C[C@H](N)[C@H](O)[C@H](C)O1` [Doxorubicin] came in with an EC50 of 150 nM. That is a sub-micromolar value.

The record behind these values is patent US10722505B2, “Substituted 2,4 diamino-quinoline as new anticancer agents” (GENOSCIENCE PHARMA, priority 2014, dated 2020).
